Assay results from patent US8802054B2, “Method for characterizing the oxidative stress protective capacity of an antioxidative substance” (PCR Technology Holdings, LC, priority 2005, dated 2014).

Columns and labels:
[1] = Radical scavenging capacity measured by photochemilluminescence (Photochem system); assay type: biochemical; conditions: for Photochemilluminescence score: 10 nmol/L=20, 100 nmol/L=15, 1000 nmol/L=10, >1000 nmol/L=5; for Effective Concentration (to eliminate radical formation): lowest effective concentration, base 10 serial dilution
Description: Test 2: Radical Scavenging Capacity Measured by Photochemilluminescence
This test assessed the general antioxidative capacity of substances in their ability to scavenge free radicals via the measurement of radicals generated (or lack thereof) through their reaction with luminol and subsequent light emission.
The individual antioxidant capacity of the putative antioxidant substances was estimated by the Photochem® system (Analytik Jena AG, Jena, Germany, and Analytik Jena USA, Inc., Texas). The system combines the generation of radicals through photochemical excitation with highly sensitive luminometric detection via the radical reaction with luminol to produce measurable light emission. Samples are diluted with pre-made buffers (standardized kits) and applied to the device. The relative antioxidative capacity is determined by comparison to a standardized blank (without antioxidants) and a standard provided with the kit. The ACL-kit (Integral Antioxidative Capacity of lipid-soluble substances) and the ACW-kit ((Integral Antioxidative Capacity of water-soluble substances) were used.
Antioxidant concentrations effective to eliminate radical formulation were established for each antioxidant.

[2] = LDL pro-oxidative system (CuSO4) measuring primary oxidation by-products (lipid hydroperoxides); assay type: biochemical; conditions: 100 μmol antioxidant; normalized to best performer = 20 points
Description: Test 3: LDL Pro-Oxidative Systems Measuring Primary & By-Products
This test assessed the ability of the antioxidant to protect LDL stressed with Copper Sulfate (Cu—SO4) oxidative system. The CuSO4-LDL system was used to evaluate the protection of lipid bulks over time measuring the primary by-products of lipid peroxidation—the highly reactive and cytotoxic lipid hydroperoxides.
After isolation, LDLs were extensively dialyzed against a degassed and nitrogen-saturated Tris-Hydrochloric (HCl) buffer (5 mmol/L, pH7.4) containing 1 mmol/L EDTA. Before oxidation by CuSO4, EDTA was removed from LDL by dialysis against a Tris-HCl buffer (5 mmol/L, pH7.4) without added EDTA.
Lipid hydroperoxides were determined with the Cayman Lipid Peroxidation (LPO) Assay Kit (Cayman Chemical, Ann Arbor, Mich.) which measures the hydroperoxides directly utilizing the redox reactions with ferrous ions to produce ferric ions which can be detected using thiocyanate ion as the chromogen.

[3] = Global relative antioxidant activity: total oxidative stress protective capacity score (sum of five tests); conditions: sum of five equally weighted tests, maximum 100
Description: Each oxidant was scored in each test, the results were then totaled for each antioxidant for each of the tests on an equal weighted basis. The total score of a particular antioxidant is reflective of the overall oxidative stress protective capacity of the antioxidant.
The five tests, which were equally weighted at 20 points each, allowed for the maximum highest possible score of 100 points. Using this scale, the higher score indicates higher oxidative stress protective capacity of the antioxidant. Equal weight was given to an antioxidant's performance in each study because each study tested the antioxidant's ability to protect against a unique different set of oxidative stress parameters.
A total oxidative stress protective capacity score for each antioxidant was determined by adding the results of the five tests for each antioxidant. Each of the five tests was assigned equal weight. That is, each antioxidant could receive a maximum of 20 points in each test so that each test contributed equally to the total score for each antioxidant.

[4] = test system: Human primary foreskin keratinocytes; experiment: UVB irradiation of keratinocytes measuring DNA damage (nuclear thymine dimer staining); assay type: cell-based; set-up: Inhibition of photoproduct generation (protective effect): concentration or dose not given beside the values; conditions: for Positive cells after UVB radiation (anti-thymine dimer antibody positive cells) / Inhibition of photoproduct generation (protective effect): 200 mJ/cm2 UVB; for Positive cells after UVB radiation (anti-thymine dimer antibody positive cells): positive cells above threshold in three fields, irradiated control 53%; for Inhibition of photoproduct generation (protective effect): relative to irradiated control; for UVB Irradiated Keratinocytes score: normalized to best performer = 20 points
Description: Test 5: UVB Irradiation of Keratinocytes Measuring DNA Damage
This test assessed DNA damage in cell culture experiments under pro-oxidative conditions (UVB irradiation of human keratinocytes) by measuring the positive cells for anti-thymine dimer antibodies. This experiment is thought to reflect a direct correlation to the in vivo occurring DNA cross linking damage following UVB exposure and the protection of such nuclear damage by antioxidants.
Human primary foreskin keratinocytes (second passage) were grown in 6-well plates containing cover slips to 60% confluence in serum free medium (KGM, Clonetics) containing 0.07 mM CaCl2. Six hours before UVB-radiation medium was removed and replaced by fresh growth medium with or without the antioxidative substances.
Keratinocyte cultures were irradiated with a single dose of 200 mJ/cm2 UVB, using FS-20/T-12 bulbs (emission range: 280-340 nm; 305 nm max.). Immediately prior to irradiation, the medium was replaced with 1 ml sterile PBS (pH 7.4, 37° C.), and after irradiation, PBS was replaced with fresh growth medium. UVB exposure was quantitated using a Goldilux Ultraviolet radiometer. Cells were maintained at 37° C. (5% CO2) for 1 hour until fixation with paraformaldehyde (PFA).
Cells were fixed with 4% PFA in PBS for 30 min at RT, washed with PBS and permeabilized by incubation with EtOH/PBS (90/10; v %/v %) for 30 min at ˜10° C. After fixation and permeabilization cells were washed twice with PBS containing 1% of bovine serum albumin (BSA). They were then incubated for 30 min with 10 μg/ml anti-thymine Dimer Ab (clone KTM53; Kamiya) at RT. After the incubation period cells were washed twice with PBS-BSA and incubated for 30 min with 20 μg/ml secondary FITC-conjugated anti-mouse IgG at RT. After the incubation with the secondary antibody, cells were washed twice with PBS-BSA and fixed again with 4% PFA for 15 min at RT. Slides were analyzed by confocal microscopy.
This experiment is thought to reflect the in-vivo occurring DNA damage following UVB exposure and the protection of such nuclear damage by antioxidants.

[5] = Microsome pro-oxidative system (NADPH/ADP/Fe3+) measuring secondary oxidation by-products (MDA equivalents, TBARS); assay type: biochemical, male Wistar rats; conditions: 100 μmol antioxidant; normalized to best performer = 20 points
Description: Test 4: Microsome Pro-Oxidative System measuring Secondary Oxidation By-Products
In this test, an assessment of antioxidative ability to protect microsomal membrane stressed with NADPH/ADP/Fe^3+-oxidative system measuring secondary oxidative by-products (Malondialdehyde-MDA equivalents) was performed utilizing the Thiobarbituric Acid Reactive Substances (TBARS) method. […] Therefore the pro-oxidative NADPH/ADP/Fe^3+-microsome system was used as an in vitro model system more closely resembling natural cellular biological systems.
Livers were obtained from male Wistar rats weighing between 250 and 400 g. Tissue was homogenized in 50 mmol/L N-2-Hydroxyethylpiperazine-N-2-Ethanesulfonic Acid (HEPES), 250 mmol/L sucrose buffer, pH 7.4, containing 150 mmol/L Potassium Chloride (KCl) and 500 μmol/L EDTA using a kinematica polytron PT3000 (Brinkmann Instruments, Westbury, N.Y.) homogenizer. Microsomal vesicles were isolated by removal of the nuclear fraction at 8,000×g for 10 min at 4° C. and removal of the mitochondrial fraction at 18,000×g for 10 min at 4° C. using a Beckman L8-55 ultracentrifuge and a 50Ti-13 rotor. The microsomal fraction was sedimented at 105,000×g for 60 min at 4° C. The pellet was washed once in 50 mmol/L HEPES and 150 mmol/L KCl, pH7.4, and collected again at 105,000×g for 30 min. The resulting microsomal pellet was resuspended in HEPES/KCl, pH7.4, by careful sonication in ice and stored in portions (10 mg protein/ml) at −80° C. until use.
The microsomal preparations were incubated in the presence of the pro-oxidant system NADPH/ADP/Fe^3+, consisting of 0.20 mmol/L NADPH, 50 mmol/L ADP, and 0.25 mmol/L FeCl3 in HEPES/KCl buffer (150 mmol/L KCl, 50 mmol/L HEPES) with and without the putative antioxidant substances. Oxidation of 1-ml aliquots containing 1 mg of protein was started at 37° C. by the addition of NADPH and was stopped with EDTA (10 mmol/L) after the times indicated in the figure legends. Control incubations without the pro-oxidant system were performed at 37° C. in the presence of EDTA. All Antioxidants were dissolved in water or ethanol and added to the incubations at equivalent 100 μmol concentrations.
Microsomal preparations (500 μl) were mixed with 1 ml of thiobarbituric acid (0.67 g/100 ml, 0.05 mol/L Sodium Hydroxide-NaOH). After the addition of trichloroacetic acid (50% w/v), the samples were heated to 90° C. for 30 min. After cooling and extraction of the samples with 1 ml of butanol, the absorbance of the butanol phase was determined spectrophotometrically at 532 nm. For quantification, an external standard curve was prepared using 1,1,3,3-tetraethoxypropane, which yields MDA.

[6] = test system: human skin; experiment: UVB irradiation of human skin measuring damage by formation of sunburn cells (sunburn cell assay); assay type: in vivo; conditions: for reduction in SBCs: 0.5% w/w in ethanol/water, topical once a day for two weeks, 1.5 MED UVB; for Sun Burn Cell Assay score: normalized to best performer = 20 points
Description: Test 1: UVB Irradiation of Human Skin Measuring Damage by Formation of Sunburn Cells (SBC)
Exposure to UV radiation can cause damage of epidermal cells, resulting in the formation of sunburn cells. Since sunburn cells can be counted, their formation provides a relatively sensitive and quantitative measure of the extent of UV radiation damage to the epidermis.
All applications were made to a 5×10 cm area site over the mid-back region once a day for two weeks. Each putative antioxidant was applied to five (n=5) different healthy adult volunteers between the ages of 18 and 60. All Antioxidants were dissolved in ethanol/water at 0.5% w/w concentrations. Additionally, one test site was left untreated and served as a control. Approximately ten minutes after the last application, test sites were irradiated to 1.5 MED (Minimal Erythema Dose) of UVB light, a shave biopsy taken and prepared histologically, and the number of sun burn cells (SBC) evaluated microscopically per High Power Field.
The light source used was a 150 watt xenon arc solar simulator equipped with a UV reflecting dichromic mirror and a 1 mm thick Schott WG-320 (BES Optics Inc., W. Warwick, R.I.) filter to produce simulation of the solar spectrum. A 1 mm thick UG5 filter was added to remove reflected heat and remaining visible radiation.
The MED for each subject was determined by exposing a 1 cm diameter circle to untreated areas to a series of exposures in 25% dose increments from the solar simulator. The MED was defined as the time of exposure required to produce a minimally perceptible erythema 20±4 hours after exposure. Biopsies: Approximately ten minutes after the last topical application of the putative antioxidant, a circular area measuring 1 cm in diameter was exposed to a single dose of 1.5 MED using the solar simulator. Approximately 20 hours later, a shave biopsy (˜4×4 mm) was obtained from each irradiated and untreated control sites. Following injections of a local anesthetic (lidocaine). The skin specimens were immediately fixed in 10% buffered formalin.
The fixed specimens were processed routinely, embedded in paraffin and then sectioned and stained with hematoxylin-eosin. The numbers of sun burn cells (SBC) were determined in at least 12 sections at 50 u intervals. A minimum of 70 high power fields (HPF) was counted from each biopsy and the average number of SBCs per HPF determined. All specimens were counted in a blinded manner.
FIG. 3 expresses the photoprotective benefits of the antioxidants tested based on the percent change over baseline (delta percent) for the number of SBC per HPF.

Row | Structure (SMILES) | Photochemilluminescence score [1] | Effective Concentration (to eliminate radical formation) [1] | Primary Oxidative Products score [2] | Total Points (Total Score) [3] | Positive cells after UVB radiation (anti-thymine dimer antibody positive cells) [4] | Inhibition of photoproduct generation (protective effect) [4] | UVB Irradiated Keratinocytes score [4] | Secondary Oxidative Products score [5] | reduction in SBCs [6] | Sun Burn Cell Assay score [6] | relative activity (efficacy) to the standard idebenone in sun burn cell assay ([6]; percentage reduction divided by that of idebenone)
1 | Cc1c(C)c2c(c(C)c1O)CCC(C)(CCCC(C)CCCC(C)CCCC(C)C)O2 (racemic) [Tocopherol, dl-alpha tocopherol] | 20 points | 10 nmol/L | 10 points | 80 points | 35% | 34% | 17 points | 17 points | 31% | 16 points | 82%
2 | O=C(O)CCCCC1CCSS1 (racemic) [lipoic acid, dl-alpha lipoic acid] | 5 points | >1000 (not detectable) nmol/L | 4 points | 41 points | 53% | 0% | 7 points | 20 points | – | 5 points | –
3 | O=C1O[C@H]([C@@H](O)CO)C(O)=C1O [Ascorbic acid, 1-ascorbic acid] | – | – | – | – | 34% | 36% | 17 points | – | – | 0 points | –
4 | COC1=C(OC)C(=O)C(CCCCCCCCCCO)=C(C)C1=O [Idebenone, 6-(10-hydroxydecyl)-2,3-dimethoxy-5-methyl-1,4-benzoquinone] | 20 points | 10 nmol/L | 16 points | 95 points | 29% | 45% | 20 points | 19 points | 38% | 20 points | –
5 | c1coc(CNc2ncnc3[nH]cnc23)c1 [Kinetin, kinetin] | – | – | – | – | 34% | 36% | 17 points | – | – | 11 points | –
6 | COC1=C(OC)C(=O)C(C/C=C(\C)CC/C=C(\C)CC/C=C(\C)CC/C=C(\C)CC/C=C(\C)CC/C=C(\C)CC/C=C(\C)CC/C=C(\C)CC/C=C(\C)CCC=C(C)C)=C(C)C1=O [Ubiquinone, ubiquinone] | 15 points | 100 nmol/L | 5 points | 55 points | 51% | 4% | 17 points | 12 points | – | 6 points | –
